Results published in the NIST ThermoML archive (doi:10.1016/j.fluid.2010.05.010).
Numbers after ± are expanded uncertainties.

Experiment: activity coefficient (dimensionless); of the first substance listed, at infinite dilution; xn = mol fraction of the nth substance listed
Settings: 101 kPa, Liquid, x1 = 0

Row | activity coefficient (273.35 K, Inert gas stripping) | activity coefficient (283.15 K, Inert gas stripping) | activity coefficient (293.15 K, Inert gas stripping) | activity coefficient (298.15 K, Inert gas stripping) | activity coefficient (303.15 K, Inert gas stripping) | activity coefficient (313.15 K, Inert gas stripping) | activity coefficient (323.15 K, Inert gas stripping) | activity coefficient (333.15 K, Inert gas stripping) | activity coefficient (293.15 K, Headspace solid-phase microextraction) | activity coefficient (298.15 K, Headspace solid-phase microextraction) | activity coefficient (303.15 K, Headspace solid-phase microextraction) | SMILES
1 | 37.6 ± 0.2 | 43.8 ± 0.1 | 46.3 ± 0.1 | 48 ± 0.1 | 49.3 ± 0.1 | 50 ± 0.1 | 50.9 ± 0.1 | 50.3 ± 0.1 |  |  |  | COC(=O)OC [dimethyl carbonate] + O
2 | 283 ± 1 | 321 ± 1 | 366 ± 1 | 380 ± 1 | 390 ± 1 | 403 ± 1 | 403 ± 1 | 394 ± 1 | 380 ± 1 | 389 ± 1 | 382 ± 1 | C=C(C)C(=O)OC [methyl methacrylate] + O
3 | 246 ± 1 | 299 ± 1 | 353 ± 1 | 374 ± 1 | 394 ± 1 | 408 ± 1 | 394 ± 1 | 388 ± 1 |  |  |  | CCOC(=O)OCC [diethyl carbonate] + O

Row | SMILES | activity coefficient (273.35 K, Inert gas stripping) | activity coefficient (283.15 K, Inert gas stripping) | activity coefficient (293.15 K, Inert gas stripping) | activity coefficient (298.15 K, Inert gas stripping) | activity coefficient (303.15 K, Inert gas stripping) | activity coefficient (313.15 K, Inert gas stripping) | activity coefficient (323.15 K, Inert gas stripping) | activity coefficient (333.15 K, Inert gas stripping) | activity coefficient (293.15 K, Headspace solid-phase microextraction) | activity coefficient (298.15 K, Headspace solid-phase microextraction) | activity coefficient (303.15 K, Headspace solid-phase microextraction)
4 | C=COC(C)=O [vinyl acetate] + O | 150 ± 1 | 161 ± 1 | 177 ± 1 | 181 ± 1 | 187 ± 1 | 190 ± 1 | 194 ± 1 | 187 ± 1 |  |  | 
